Data published in ChEMBL document CHEMBL5604062, “ASAP - ZIKV NS2B-NS3 protease fluorescence dose response” (2024).
Several values for one entry are separate records, joined by “and”; a condition that tells them apart may be missing. Equal values may be shown once.

Biological target: Nonstructural protein 3 (Zika virus, UniProt A0A024AXB9)
Test: Functional biochemical assay to identify treatments for viral infectious disease that targets Zika NS2B-NS3 protease. Utilizing a direct enzyme activity measurement method, reading the fluorescence intensity is used to characterize the relative potency of inhibitors as IC50.
Set-up: species or system PRVABC59

Sequence of Nonstructural protein 3 (A0A024AXB9 whole entry): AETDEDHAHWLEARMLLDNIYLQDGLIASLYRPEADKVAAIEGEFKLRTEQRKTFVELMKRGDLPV

SMILES | IC50
O=C(Nc1ccc2c(c1)[C@H]1CC[C@H]2N1)c1cc(Cl)cc2[nH]ncc12 | 5.65 µM
NC(=O)c1cn(C[C@H]2CCCN2c2ccnc3ccccc23)nn1 | > 99.5 µM
CCn1cc(S(=O)(=O)N[C@@H](C(=O)Nc2cccc(CN)c2)c2ccc(OCc3ccccc3)cc2)cn1 | > 99.5 µM
CCn1c(=O)c(N2C[C@H]3COC[C@@]3(C)C2)nc2ccccc21 | > 99.5 µM
Cc1ncc(-c2cc(F)cc(C(=O)Nc3ccc4c(c3)CNC4)c2)s1 | 0.071 µM and 0.052 µM
NCc1cc(NC(=O)c2cc(Cl)cc(NC(=O)OCc3ccccc3)c2)cc(-c2ccc3c(c2)C[C@H](C(=O)O)CO3)c1 | > 99.5 µM
CCn1ccnc(N2CCC[C@H]2C(=O)O)c1=O | > 99.5 µM
O=C(NCCc1nc2ccccc2[nH]1)c1cc2ccc(F)cc2s1 | > 99.5 µM
C[C@H]1Oc2ccc(NC(=O)c3cc(Cl)cc(NC(=O)OCc4ccccc4)c3)cc2NC1=O | > 99.5 µM
CCn1c(=O)c(N2C[C@H]3CCC[C@H]2C3)nc2ccccc21 | > 99.5 µM
c1ccc(COc2ccc3c(CN4CCC(c5cscn5)CC4)c[nH]c3c2)cc1 | > 99.5 µM
NCc1cccc(NC(=O)[C@@H](NC(=O)OCc2ccccc2)c2ccc(OCCN3CCCCC3)cc2)c1 | > 99.5 µM
Cn1ncc2cc(C(=O)N3CCC(NC(=O)[C@]4(C)CCC[C@H]4O)CC3)cc(O)c21 | > 99.5 µM
O=C(Nc1cc(Cl)cc(C(=O)Nc2ccc3c(c2)COC3)c1)OCc1ccccc1 | > 99.5 µM
NC(=O)C1CCN(Cc2c[nH]c3ccccc23)CC1 | > 99.5 µM
N#Cc1cccc(C[C@H](O)c2cc(Cl)cc(NC(=O)OCc3ccccc3)c2)c1 | > 99.5 µM
N#Cc1cccc(-c2nc3c(C(=O)Nc4ccc5c(c4)CNC5)cc(F)cc3[nH]2)c1 | 33 nM (2×) and 13 nM
NCc1cccc(NC(=O)[C@@H]2C[C@@H]3CC[C@H]2N3C(=O)OCc2ccccc2)c1 | > 99.5 µM
c1cnc2c(C3CCN(Cc4c[nH]c5ncccc45)CC3)c[nH]c2c1 | > 99.5 µM
C[C@H]1CN(Cc2ccccc2)C[C@@H](C(=O)Nc2cccc(CN)c2)O1 | > 99.5 µM
CNC(=O)[C@H](Nc1ccc2c(c1)CNC2)c1cc(Cl)cc(C2CC2)c1 | 0.055 µM and 0.042 µM
OC1(c2ccccc2)CCN(Cc2c[nH]c3ccccc23)CC1 | > 99.5 µM

SMILES | IC50
Cc1c(C(=O)Nc2cccc(-c3nnn[nH]3)c2)cnn1-c1ccc(Cl)cc1 | > 99.5 µM
NCCNC(=O)c1cc(Cl)ccc1NS(=O)(=O)c1ccc(Oc2ccccc2Cl)cc1 | > 99.5 µM
NCCCOc1cc2c(c(-c3ccc(N)nc3)c1)CCB(O)O2 | > 99.5 µM
N#Cc1ccc(OCCn2nnn(-c3ccccc3)c2=O)cc1 | > 99.5 µM
O=C(NCCCF)[C@H](Nc1ccc2c(c1)CNC2)c1cc(Cl)cc(C2CC2)c1 | 0.059 µM and 0.033 µM
NCc1cccc(NC(=O)c2cc(Br)cnc2OCC2CC2)c1 | > 99.5 µM
NCc1cccc(NC(=O)[C@@H](N)c2ccc(OCc3ccccc3)cc2)c1 | > 99.5 µM
O=C(Nc1cc([C@H]2CCOC2)ccn1)c1cc(Br)cc2[nH]ccc12 | > 25 µM
Cc1nn(C)cc1-c1ccc(S(=O)(=O)Nc2ccc(Cl)cc2C(=O)O)cc1 | > 99.5 µM
CCn1ccnc(N2CC[C@H](c3ccn[nH]3)C2)c1=O | > 99.5 µM
CN1CCc2ncc(NC(=O)[C@@H](NC(=O)OCc3ccccc3)c3ccc(OCc4ccccc4)cc3)cc2C1 | > 99.5 µM
O=C(Nc1ccc2c(c1)C(=O)OC2)c1cc(CC2CCNCC2)ccc1F | > 25 µM
CCn1c(=O)c(N2CC[C@@H](CO)C2)nc2ccccc21 | > 99.5 µM
N#Cc1ccc2[nH]cc(Cc3ccc(-c4nnn[nH]4)cc3)c2c1 | > 99.5 µM
Cc1c(C(=O)Nc2cc(C(=O)N3CC(C(N)=O)C3)ccn2)cc(C2CC2)n1C | > 25 µM
CC(C)c1ncc(OC2CCC2)c(C(=O)Nc2cccc(CN)c2)n1 | > 99.5 µM
CCOC(=O)N1CCC[C@H]1c1cccc(-c2ccc3[nH]c(C(=O)O)cc3c2)c1 | > 99.5 µM
Cc1oc(C2CC2)nc1C(=O)Nc1cc(-c2cccnc2)ccn1 | > 25 µM
O=C(Nc1ccc2c(c1)CNC2)c1cc(F)cc2[nH]nnc12 | 0.081 µM and 0.132 µM
COCCN(C)C(=O)Cn1ccnc(N2CC[C@@H](CO)C2)c1=O | > 99.5 µM
CS(=O)(=O)c1cc(NC(=O)OCc2ccccc2)cc(C(=O)Nc2cccc(CN)c2)c1 | > 99.5 µM
CCCn1cc(-c2cc(Cl)cc(NC(=O)OCc3ccccc3)c2)c(C(=O)O)n1 | > 99.5 µM

SMILES | IC50
C=CC[C@H](Nc1cccc(-c2nn[nH]n2)c1)c1cc(Cl)cc2[nH]ncc12 | > 99.5 µM
N=C(N)NCCc1ccc(NC(=O)C(=O)c2ccccc2)cc1 | > 198 µM
Cc1nc(C2CC2)sc1C(=O)Nc1cc(CCCN)ccn1 | > 25 µM
Cn1ccnc(N2CCC(NS(=O)(=O)c3ccc(Cl)cc3C(=O)O)CC2)c1=O | > 99.5 µM
CO[C@H]1C[C@H](n2ncc3c(C(=O)Nc4ccc5c(c4)CNC5)cc(Cl)cc32)C1 | 0.054 µM and 0.042 µM
NCCOc1ccnc(NS(=O)(=O)c2ccc(Oc3ccccc3Cl)cc2)c1 | > 99.5 µM
CNC(=O)[C@H](Nc1cc(Cl)cc(NC(=O)OCc2ccccc2)c1)c1ccc(-c2nn[nH]n2)cc1 | > 99.5 µM
O=C(Nc1cc(Cl)cc(C(=O)NC[C@H]2CNC3(CC3)CO2)c1)OCc1ccccc1 | > 99.5 µM
CCn1ccnc(N2C[C@@H](OC(=O)OC)[C@H](c3c[nH]c4ccccc34)C2)c1=O | > 99.5 µM
CC(C)(C)OC(=O)NCc1cc(Br)cc(NC(=O)c2cc(Cl)cc(NC(=O)OCc3ccccc3)c2)c1 | > 99.5 µM
O=C(Nc1ccc2c(c1)CNC2)c1nc(-c2ccccc2)cs1 | > 25 µM
CN(C(=O)c1ccc2c(c1)[C@H](CN)CCC2)C1CCN(CC(F)F)CC1 | > 99.5 µM
O=C(N[C@@H](C(=O)NC1CCCCC1)c1ccc(OCc2ccccc2)cc1)OCc1ccccc1 | > 99.5 µM
Cc1cccnc1COc1ccc(S(=O)(=O)Nc2ccc(Cl)cc2C(=O)O)cc1 | > 99.5 µM
Cc1c(C(=O)Nc2ccc3c(c2)CCS3(=O)=O)cc(C2CC2)n1C | > 25 µM
O=C1CCc2c(cc(Cl)cc2-c2ccc3[nH]c(C(=O)O)cc3c2)N1 | > 99.5 µM
O=C(Nc1cc(Cl)cc(C(=O)Nc2cccc([C@H]3CNCCO3)c2)c1)OCc1ccccc1 | > 99.5 µM
O=C(O)c1cc2cc(-c3cccc([C@H]4COCCN4)c3)ccc2[nH]1 | > 99.5 µM
CC(C)C[C@H](NC(=O)c1cc(Cl)cc(NC(=O)OCc2ccccc2)c1)c1nnn[nH]1 | > 99.5 µM
CCn1c(=O)c(N2CC[C@]3(CNC(=O)O3)C2)nc2ccccc21 | > 99.5 µM

The remaining lines, values ahead:

IC50 | SMILES
> 25 µM | Cc1c(C(=O)Nc2cc(-c3cccnc3)ccn2)cc(C(C)(C)C)n1C
16.6 µM | O=C(Nc1ccc2c(c1)CNC2)c1cccnc1
7.05 µM | C#C[C@H](Nc1ccc2c(c1)CNC2)c1cccc2[nH]c(=O)[nH]c12
38.3 µM | O=C(Nc1cc(Cl)cc([C@H](C#CCO)Nc2cccc(-c3nn[nH]n3)c2)c1)OCc1ccccc1
3.56 µM | NCc1cccc(NC(=O)[C@@H](NC(=O)OCc2ccccc2)c2ccc(-c3cc4cccnc4s3)cc2)c1
8.83 µM | NCc1cccc(NC(=O)[C@H](NC(=O)OCc2ccccc2)c2cccc(-c3ccc4c(c3)CC(=O)N4)c2)c1
90.2 µM | O=C(O)c1cc2cc(-c3cc(Cl)c4[nH]c(=O)oc4c3)ccc2[nH]1
9.66 µM | C=CC[C@H](Nc1cc(Cl)cc(NC(=O)OCc2ccccc2)c1)c1ccc(-c2nn[nH]n2)cc1
12.8 µM | CS(=O)(=O)Nc1cccc(C(=O)Nc2ccc3c(c2)CNC3)c1
0.645 µM | O=C(Nc1ccc2c(c1)CNC2)c1cc(F)cc(C=C2CCS(=O)(=O)CC2)c1
84 µM | O=C(Nc1cc(Cl)cc(C(=O)Nc2cccc(C(=O)O)c2)c1)OCc1ccccc1
0.612 µM | CNC(=O)[C@H](Nc1cccc(CN)c1)c1cc(Cl)cc(NC(=O)OCc2ccccc2)c1
2.53 µM | NCCc1ccc([C@H]2C[C@@H]2c2cc(Cl)cc(NC(=O)OCc3ccccc3)c2)cc1
21.1 µM | Cc1ccncc1-c1cc(CN)cc([C@@H]2C[C@H]2c2cc(Cl)cc(NC(=O)OCc3ccccc3)c2)c1
0.866 µM | Cc1ccc2cc(Cl)cc(C(=O)Nc3ccc4c(c3)CNC4)c2n1
8.18 µM | CCOc1cccc(-c2ccc(S(=O)(=O)Nc3cc(F)c(Cl)cc3C(=O)O)cc2)c1
1.66 µM | O=C(Nc1ccc2c(c1)OCCNC2)c1cc(Cl)cc2[nH]ncc12
> 25 µM | CC(C)c1nccn1C[C@H]1CCCN1C(=O)Nc1ccc2c(c1)CNC2
> 25 µM | Cc1c(C(=O)Nc2cc(-c3cccnc3)ccn2)cc(CC(C)(C)C)n1C

IC50 | SMILES
> 25 µM | CO[C@H]1CCCN(C(=O)c2ccnc(NC(=O)c3cc(C4CC4)n(C)c3C)c2)C1
16.9 µM | O=C(Nc1ccc2c(c1)CNC2)c1n[nH]c2ccc(F)cc12
11.5 µM | CC(C)(C)OC(=O)NCc1cc(NC(=O)c2cc(Cl)cc(NC(=O)OCc3ccccc3)c2)cc(-c2nn[nH]n2)c1
67.5 µM | CN1CC=C(c2cccc([C@@H](NC(=O)OCc3ccccc3)C(=O)Nc3cccc(CN)c3)c2)CC1
10.6 µM | N[C@H]1CCOc2ccc(NC(=O)c3cc(Cl)cc(NC(=O)OCc4ccccc4)c3)cc21
0.116 µM | Cc1cnccc1-c1cc(NC(=O)c2cc(F)cc3[nH]ncc23)cc2c1CNC2
37 µM | O=C(O)c1cc(OC2CCOCC2)c(F)cc1NS(=O)(=O)c1ccc(Oc2ccccc2Cl)cc1
88.3 µM | Cc1c(C(=O)Nc2cccc(CCN)c2)cc(C2CC2)n1C
64.4 µM | NCc1cccc(NC(=O)[C@@H](NC(=O)OCc2ccccc2)c2cccc(Br)c2)c1
25.3 µM | C=CC[C@H](Nc1cccc(CN)n1)c1cc(Cl)cc(NC(=O)OCc2ccccc2)c1
12.8 µM | O=C(Nc1cc(Cl)cc([C@H](Nc2cccc(-c3nn[nH]n3)c2)C(=O)NCc2ccccc2)c1)OCc1ccccc1
3.51 µM | Fc1cc(CNc2ccc3c(c2)CNC3)c2cn[nH]c2c1
58.7 µM | Cc1ccc(-c2nnn[nH]2)cc1NC(=O)c1cc(Cl)cc(NC(=O)OCc2ccccc2)c1
68.6 µM | NC[C@]1(F)C[C@@H](NC(=O)c2cc(Cl)cc(NC(=O)OCc3ccccc3)c2)C1
99.3 µM | Cc1nc(C2CCN(Cc3c[nH]c4ccccc34)CC2)sc1C(=O)O
60.4 µM | CCCC[C@H](NC(C)=O)C(=O)N[C@H](C(=O)NCc1ccc(CN)cc1)c1ccc(OCc2ccccc2)cc1
0.241 µM | O=C(Nc1ccc2c(c1)CN[C@H]2[C@H](O)CO)c1cc(F)cc2[nH]ncc12
0.736 µM | Cc1cc(CN)cc(NC(=O)c2cc(Cl)cc3[nH]ncc23)c1
